melting point	Compound
99 to 100 °C	Clc1ccc(C2CCc3cc(Cl)ccc3O2)cc1 (stereo not given)
234 to 235 °C	N#CNC=Nc1ccc(-c2c[nH]cn2)cc1
208 to 209 °C	O=Cc1cn(-c2ccccc2)nc1-c1ccc([N+](=O)[O-])o1
128 to 130 °C	Nc1nnc(-c2cccc(Oc3cccc(COc4ccc(Cl)c(Cl)c4)c3)c2)s1
164 to 165 °C	CC(C)(CNc1ccnc2cc(Cl)ccc12)NCc1ccc(F)c(Cl)c1
152 to 154 °C	CC(=O)Nc1ccccc1Oc1ccc(C#N)c(C#N)c1
51 to 53 °C	CCOC(=O)CC1CCc2c(sc3c(Cl)cccc23)C1 (stereo not given)
171 to 172 °C	COc1cc(Nc2nccc(-c3ccc(CO)cc3)n2)cc(OC)c1OC
84 to 85 °C	COC(=O)CCCCCCNC(=O)C(CSC(C)=O)Cc1ccccc1 (stereo not given)
113 to 115 °C	Nc1ccc(-c2n[nH]c3c2sc2ccccc23)cc1
164 to 166 °C	Cn1c2ccccc2c2cc(C(=O)C(C)(C)N3CCOCC3)ccc21
83.6 °C	C[C@H](c1ccccc1)N1CCO[C@@H](c2ccc(C#N)cc2)C1
104 °C	CCOP(=O)(OCC)c1cc2nc(OCc3ccccc3)c(OCc3ccccc3)nc2c2c1CN(C)CC2
126 to 127 °C	CCOC(=O)Cc1cnc(-c2cc3cccc(N(C)S(=O)(=O)c4cccs4)c3[nH]2)s1
125 to 127 °C	Nc1c(C(=O)c2cccc(S(N)(=O)=O)c2)[nH]c2cc(Cl)ccc12
166 to 168 °C	CC(=O)Nc1ccc(OC(=O)C2CCc3c(c4ccccc4n3C(=O)c3ccccc3)C2)cc1 (stereo not given)
134 to 136 °C	CCOC(=O)C1=C(C)NC(C)=C(C(=O)OC)C1c1ccccc1Br (stereo not given)
82 to 83 °C	CCCCNc1c(C(=O)OCC)cnc2c1cnn2CC
148 to 150 °C	Cc1c(C)c2c(c(C)c1Nc1ccccc1)CC(C)(C)O2
201 to 202 °C	COc1cc(C#N)cc(-c2ccc3c(c2)C(C)(C)OC(=S)N3)c1
163 °C	O=C(NC1CCC(c2cc(Nc3cccc(C(F)(F)F)c3)n[nH]2)C1)C1CCCCC1 (stereo not given)
242 to 243 °C	Cn1c(=O)c(C(=O)O)c(-c2ccccc2)c2cc(Cl)ccc21
204 to 205 °C	N#Cc1ccc(C=Nc2c3c(nc4ccccc24)CCCC3)cc1
90 to 92 °C	CCOC(=O)C(C(=O)OCC)C(N)c1ccc(Cl)cc1C(N)C(C(=O)OCC)C(=O)OCC (stereo not given)
144 to 145 °C	O=Cc1cc2c(cc1C=O)[C@H](CO)OC2=O

melting point	Compound
178 to 180 °C	COc1ccc(C(=O)Nc2ccc(Cl)c(Cl)c2)cc1NCc1cccs1
119 to 122 °C	CCOC(=O)C(=CNc1nccs1)C(=O)c1ccc(Cl)nc1Cl
113 °C	CCCNC(=O)c1ccc2c(c1)N(C(C)CN1CCCCCC1)c1ccccc1S2 (racemic)
146 to 147 °C	COc1ccc(C(=Cc2nnnn2C)c2ccc(OC)cc2)cc1
165 to 175 °C	Nc1n[nH]c2ccc(Br)cc12
204 to 207 °C	CC(CC(=O)Nc1c(Cl)ccc2nc(N3CCC(N)C3)ccc12)c1ccccc1 (stereo not given)
204 to 205 °C	CC1=Cc2cccc(S(N)(=O)=O)c2OS1(=O)=O
106 to 107 °C	CCCCCCCc1ccc(C=CC(=O)c2ccc(OCC=C(C)C)cc2OCC(=O)O)cc1
148 to 151 °C	O=c1c2c(Cl)cc(Cl)cc2n(Cc2ccccc2)c(=O)n1Cc1ccc(F)cc1
202 °C	CS(=O)(=O)C(=C1CN(C(c2ccccc2)c2ccccc2)C1)c1cc(Cl)ccc1Cl
90 to 91 °C	O=C(CCSc1ccc2ccccc2c1)c1ccccc1
74 to 76 °C	O=C(O)CCNC(=O)CCCCC1CCSS1 (stereo not given)
140 to 160 °C	N#Cc1c(N2CCN(C(=O)c3ccc4c(c3)OCO4)CC2)c2ccccc2n(Cc2ccc(F)cc2)c1=O
125 to 129 °C	CC(C)(C)OC(=O)NC(CCO)C(=O)OC(c1ccccc1)c1ccccc1 (racemic)
95 to 97 °C	CCOC(=O)Cc1sc(Sc2nc(C)ccc2C(=O)OCC)nc1C
63 to 64 °C	O=C(CCCCOc1ccc(O)cc1)C(F)(F)F
275 °C	CNC(=O)[C@@H]1CSCc2c(O)cc(O)c(C)c2C(=O)OC[C@H](O)C(=O)N1
164 to 167 °C	O=C1c2ccccc2CCC1CN1CCC(O)(c2ccccc2)CC1 (stereo not given)
233 to 234 °C	O=C(O)c1ccc(-c2nc(-c3cccc(OC(F)(F)F)c3)cs2)cc1
210 to 211 °C	CN1C(=O)c2ccccc2Nc2ccccc21
> 270 °C	O=c1[nH]c2scc(C3CCCCC3)c2[nH]c1=O
< 50 °C	Cc1cc2c(c(C)c1C)OCC2
108 to 110 °C	CCOC(=O)CCCn1c(=O)n(CCN2CCN(c3ccccc3OC)CC2)c(=O)c2cscc21
199 to 200 °C	Cc1cnc(C(=O)c2[nH]c3cc(Cl)ccc3c2CC(=O)O)c(C)c1
100 to 102 °C	Cc1sc2ccc(Cl)cc2c1C1=NCCO1

melting point	Compound
80.3 to 87.7 °C	Cc1cc(C)c(N2CCCc3c2nn(C)c3C(=O)N2CCc3ccccc3C2)c(C)c1
105 to 106 °C	CC(C)=NN(C)C1=NOCc2ccc(Cl)cc21
132 °C	O=c1ncc(Cl)cn1COCc1cccs1
186 to 187 °C	CCCc1c(OCc2nnn[nH]2)ccc(C(=O)c2ccccc2O)c1O
133 to 134 °C	CCOC(=O)CNc1ncccc1NC(=O)c1ccc(Cl)cc1
168 to 169 °C	Cc1cc(C(=O)N2Cc3cccn3Cc3ccccc32)ccc1C1=CCC2CCC1C2 (stereo not given)
289 to 290 °C	Cc1oc2cc(O)ccc2c(=O)c1C(N)=O
52 to 60 °C	CC(C)(C)Nc1nc(C(F)(F)F)c(C(=O)Cl)o1
148 to 150 °C	CCCOc1ccc(-c2nc3n(c2-c2ccncc2)CCC3)cc1
186 to 187 °C	CC(=O)NC[C@H]1CN(c2ccc3c(c2)CCSc2cn[nH]c2-3)C(=O)O1
93 °C	O=C(O)CCc1cc2nc(Cl)ccc2n1S(=O)(=O)c1cccc2ccccc12
96 to 97 °C	CCOC(=O)C(=CNc1ccnn1-c1ccccc1)C(=O)OCC
55 to 56 °C	COc1ccc(COCC(O)Cc2cccnc2)cc1 (stereo not given)
226 to 227 °C	CN1CCN(c2ccc(-c3cnc4c(c3)N(Cc3cc(Cl)ccc3C(F)(F)F)CCN4)cn2)CC1
145 to 146 °C	O=[N+]([O-])c1ccc(N2CCN(Cc3ccccc3)CC2)cc1CS(=O)(=O)c1ccccc1
236 to 239 °C	Cc1cnc2nc(NS(=O)(=O)c3ccccc3Cl)nn2c1
63 to 65 °C	COc1ccc(Oc2cccc(Cl)n2)cc1
78 to 81 °C	Fc1ccc2c(c1)C(=C1CCNCC1)c1ncccc1CC2
> 300 °C	COc1ccc(-c2nc(N3CCOCC3)c3sc(NS(=O)(=O)c4cccc(/C=C/C(=O)NO)c4)cc3n2)cn1
170 °C	O=C(c1nc(NNNc2ccccc2)nc(C(=O)c2ccccc2O)n1)c1ccccc1O
173 °C	CCCC(=O)Nc1cc(CNc2ccccc2C(=O)Nc2cc3ccccc3cn2)ccn1
115 to 117 °C	CCOCn1nccc1C(=O)c1ccc(O)c(Cl)c1Cl
221 to 222 °C	O=C1C2=C(C(=O)c3ccccc31)C(=O)C1CC(Cl)=CCC1C2=O (stereo not given)
185 °C	COc1ccc(C(=O)Nc2nc3ccc(N(C)C)cc3c(N=Cc3ccccc3)c2C#N)cc1
128 to 132 °C	COc1cc2c(c3c1OC(C)(C)C3)C(c1ccc(-c3ccc(NC(C)=O)cc3)cc1)=NC(C)(C)C2

melting point	Compound
129 to 130 °C	COC(=O)CCC(C)C1CCC2C3CCC4CC(N)CCC4(C)C3CC(=O)C12C (stereo not given)
135 to 139 °C	Cc1cc(C(=O)O)n(CC(F)(F)F)n1
243 to 244 °C	Cn1c2ccc(Br)cc2c2sccc(=O)c21
110 to 111 °C	Cc1nnc(-c2ccc3occ(-c4cccc(OC(F)(F)F)c4)c3c2)o1
194 to 195 °C	CC(=O)NC1(c2ccc(=O)n(C)c2)CCCCC1
140 to 141 °C	Nc1nccc(-c2cccc(OCC(O)CN3CCN(c4cccc(Cl)c4)CC3)c2)n1 (stereo not given)
203 to 204 °C	COc1ncc(CN2C(=O)C3(COc4cc5c(cc43)CCO5)c3ccccc32)cn1 (stereo not given)
111 °C	Cc1ccc(S(=O)(=O)N(C)CC(=O)N2CCC[C@H]2C=O)cc1
104 to 105 °C	C#CCn1ccc2ccccc2c1=O
183 to 184 °C	NC(=O)CNC(=O)c1cccc(-c2ccnc3cc(Cc4cccc(C(F)(F)F)c4)sc23)c1
264 to 265 °C	CC(=O)N[C@H]1CCN(C(=O)c2ccc(-c3[nH]nc4c3C(=O)c3c(NC(=O)NN5CCOCC5)cccc3-4)s2)C1
235 to 237 °C	CC1(C)Oc2ccc(C#N)cc2C(NC(=O)Nc2ccc3c(c2)CCC3)C1O (stereo not given)
221 to 223 °C	CC(C)n1nc(-c2c(-c3ccccc3)nc(N)nc2N2CCCCC2)ccc1=O
160 to 164 °C	Cc1cc(C(C)(C)C)cc(C)c1C(=O)O
55 to 57 °C	CCC(=O)C1=C(O)OC(C)(C)OC1=O
122 to 124 °C	O=CC=CC(=C(c1ccc(F)cc1)c1ccc(F)cc1)c1nnn(C(c2ccccc2)(c2ccccc2)c2ccccc2)n1
93 to 94 °C	CCC1CC2C3CCc4cc(OC)ccc4C3CCC2(C)C1=O (stereo not given)
188 °C	C[C@@H](S[C@H]1CO[C@H](c2ccc(C(=O)NCc3ccc(C#N)cc3)cc2)OC1)[C@](O)(Cn1cncn1)c1ccc(F)cc1F
224 to 227 °C	CN1C(=O)CN(c2ccc(OCc3ccccc3)cc2)NC1=O
136 to 138 °C	N#Cc1ccc2[nH]cc(C3CCC(=O)C3)c2c1 (stereo not given)
162 to 163 °C	CC(C)n1nc(-c2c(OCc3ccccc3)nc(N)nc2-c2ccccc2)ccc1=O
146 to 148 °C	CCNC(=S)NS(=O)(=O)c1cc(CCNC(=O)C=Cc2ccc(OC)cc2OC)ccc1OCCOC
180 to 181 °C	Cc1nc(C(=O)O)c(OCc2ccccc2)c(=O)n1C

Compound	melting point
CNC(=O)Oc1ccc(CN2CCN(c3ccc([N+](=O)[O-])cc3)CC2)cc1OC	155 to 157 °C
Cc1nc2cc(NC(=O)c3cc4cc(F)cnc4n3Cc3ccncc3)ccc2n1C	263 to 265 °C
